# Data: patent US20080096922A1, “Novel Sulfonamide derivative” (Dainippon Sumitomo Pharma Co., Ltd., priority 2004, published 2008)
# Structures can show the parent of a compound that is named as a salt.
# System: LDL receptor
# Assay: Effects on an activity of a LDL receptor: uptake amount of DiI-LDL into HepG2 cell
# Format: cell-based, human
# Settings: control group as 100%
# Procedure: The 1,1′-dioctadecyl-3,3,3′,3′-tetramethylindocarbocyanine perchlorate (DiI)-labeled LDL (DiI-LDL) was prepared as follows. That is, a DiI (Invitrogen Corp., U.S.A) was mixed with a human LDL (Chemicon International, Inc., U.S.A) and the mixture was incubated at 37° C. for 8 hours. […] After centrifugation, the DiI-labeled LDL fraction was separated and dialyzed with a physiological saline to prepare the above desired solution.
# The effects on a LDL receptor activity were determined as the uptake amount of DiI-LDL into HepG2 cell. The cultured human hepatic cell line HepG2 cell was purchased from the Dainippon Pharmaceuticals Co. Ltd. (Osaka, Japan). The HepG2 cells were seeded in a 96 well plate and were incubated in the Dulbecco's modified Eagle/F-12 (DMEM/F-12) medium containing 10% fetal bovine serum and antibiotics in a CO2 incubator at 37° C. for two to three days. After washing the cells, a DMEM/F-12 medium containing 5-10% lipoprotein-deficient serum, the test substrate and the antibiotics were added thereto and the cells were incubated at 37° C. for 19 hours. After adding DiI-LDL, the cells were incubated in a CO2 incubator at 37° C. for another 5 hours. The uptake amount of non-specific DiI-LDL was measured by adding 30 to 50 folds amount of the non-labeled LDL. After washing the cells with Dulbecco's phosphate buffer (Sigma Corp., U.S.A.), the Dulbecco's phosphate buffer was added to each well and then the uptake amount of DiI-LDL into the cell line were measured as the value of fluorescence. After measuring the fluorescence, the Dulbecco's phosphate buffer was removed and thereto was added 1N sodium hydroxide solution to dissolve the cells and the amount of protein was measured by using a part of the resulting solution. The effect on a LDL receptor activity by each compound was determined by calculating the ratio of the amount of fluorescence/the amount of protein, and by subtracting the non-specific uptake amount therefrom and then calculating the control group as 100%.
structure (smiles),measurement,setting,value
"COc1cccc([C@]2(CCNS(N)(=O)=O)CC[C@@H](NCc3ccc(-c4ccccc4)cc3)CC2)c1.Cl [Example 22, N-{2-[trans-4-[(biphenyl-4-ylmethyl)amino]-1-(3-methoxyphenyl)cyclohexyl]ethyl}sulfamide hydrochloride]",Activity of (%) LDL receptor,3 μM,156%
"COc1cccc(C2(NS(=O)(=O)NC(=O)c3ccc(Cl)cc3)CCN(c3ncccn3)CC2)c1 [Example 34, 4-chloro-N-({[4-(3-methoxyphenyl)-1-pyrimidin-2-yl-piperidin-4-yl]amino}sulfonyl)benzamide]",Activity of (%) LDL receptor,10 μM,139%
"COc1cccc([C@]2(CNS(C)(=O)=O)CC[C@@H](NCc3ccc(S(C)(=O)=O)cc3)CC2)c1 [Example 12-2, N-[(cis-1-(3-methoxyphenyl)-4-{[4-(methylsulfonyl)benzyl]-amino}cyclohexyl)methyl]methanesulfonamide]",Activity of (%) LDL receptor,10 μM,142%
"COc1cccc(C2(C(=O)NS(N)(=O)=O)CCN(c3ncccn3)CC2)c1 [Example 28-1, N-(aminosulfonyl)-4-(3-methoxyphenyl)-1-pyrimidin-2-ylpiperidine-4-carboxamide]",Activity of (%) LDL receptor,10 μM,186%
"COc1cccc(C2(C(=O)NS(=O)(=O)Oc3ccccc3C(C)(C)C)CCN(c3ccccc3OC)CC2)c1 [Example 1-8, 2-tert-butylphenyl {[1-(2-methoxyphenyl)-4-(3-methoxyphenyl)piperidin-4-yl]carbonyl}sulfamate]",Activity of (%) LDL receptor,10 μM,134%
"COc1cccc([C@]2(CNS(N)(=O)=O)CC[C@@H](NCc3ccc(-n4cncn4)cc3)CC2)c1 [Example 18-3, N-[(cis-1-(3-methoxyphenyl)-4-{[4-(1H-1,2,4-triazol-1-yl)-benzyl]amino}cyclohexyl)methyl]sulfamide]",Activity of (%) LDL receptor,10 μM,154%
"COc1cccc([C@]2(CNS(C)(=O)=O)CC[C@H](N3CCN(C)CC3)CC2)c1 [Example 13-1, N-{[trans-1-(3-methoxyphenyl)-4-(4-methylpiperazin-1-yl)cyclohexyl]methyl}methanesulfonamide]",Activity of (%) LDL receptor,10 μM,129%
"COc1cccc([C@]2(CNS(C)(=O)=O)CC[C@@H](NCc3ccc(-c4ccccc4)cc3)CC2)c1 [Example 24, N-{[cis-4-[(biphenyl-4-ylmethyl)amino]-1-(3-methoxyphenyl)cyclohexyl]methyl}methanesulfonamide]",Activity of (%) LDL receptor,1 μM,238%
"COc1cccc([C@]2(CNS(=O)(=O)NC(=O)OC(C)(C)C)CC[C@@H](NCc3ccc(-c4ccccc4)cc3)CC2)c1 [Example 41, tert-butyl [({[cis-4-[(biphenyl-4-ylmethyl)amino]-1-(3-methoxyphenyl)cyclohexyl]methyl}amino)sulfonyl]carbamate]",Activity of (%) LDL receptor,10 μM,173%
"COc1cccc([C@]2(CNS(N)(=O)=O)CC[C@@H](NCc3ccc(S(N)(=O)=O)cc3)CC2)c1.Cl [Example 38, 4-({[cis-4-{[(aminosulfonyl)amino]methyl}-4-(3-methoxyphenyl)cyclohexyl]amino}methyl)benzenesulfonamide hydrochloride]",Activity of (%) LDL receptor,10 μM,150%
"COc1cccc(C2(C(=O)NS(=O)(=O)Oc3c(C(C)C)cccc3C(C)C)CCN(c3ncccn3)CC2)c1 [Example 1-17, 2,6-diisopropylphenyl {[4-(3-methoxyphenyl)-1-pyrimidin-2-ylpiperidin-4-yl]carbonyl}sulfamate]",Activity of (%) LDL receptor,10 μM,120%
"COc1cccc([C@]2(CNS(N)(=O)=O)CC[C@H](NCc3ccc(-c4ccccc4)cc3)CC2)c1 [Example 43, N-{[trans-4-[(biphenyl-4-ylmethyl)amino]-1-(3-methoxyphenyl)cyclohexyl]methyl}sulfamide hydrochloride]",Activity of (%) LDL receptor,3 μM,146%
"COc1cccc(C2(C(=O)NS(=O)(=O)Oc3c(C(C)C)cccc3C(C)C)CCC(Nc3ccccc3OC)CC2)c1 (stereo not shown) [Example 3-2, 2,6-diisopropylphenyl ({1-(3-methoxyphenyl)-4-[(2-methoxyphenyl)amino]cyclohexyl}carbonyl)sulfamate]",Activity of (%) LDL receptor,10 μM,154%
"COc1cccc([C@]2(CNS(=O)(=O)c3ccc(C)cc3)CC[C@@H](NCc3ccc(-c4ccccc4)cc3)CC2)c1 [Example 25, N-{[cis-4-[(biphenyl-4-ylmethyl)amino]-1-(3-methoxyphenyl)cyclohexyl]methyl}-4-methylbenzenesulfonamide]",Activity of (%) LDL receptor,3 μM,153%
"COc1cccc(C2(C(=O)NS(=O)(=O)NC(C)c3ccccc3)CCN(c3ncccn3)CC2)c1 (stereo not shown) [Example 28-6, 4-(3-methoxyphenyl)-N-{[(1-phenylethyl)amino]sulfonyl}-1-pyrimidin-2-ylpiperidine-4-carboxamide]",Activity of (%) LDL receptor,10 μM,127%
"COc1cccc([C@]2(CNS(N)(=O)=O)CC[C@@H](NC3CCN(Cc4ccccc4)CC3)CC2)c1 [Example 18-1, N-{[cis-4-[(1-benzylpiperidin-4-yl)amino]-1-(3-methoxyphenyl)cyclohexyl]methyl}sulfamide]",Activity of (%) LDL receptor,10 μM,230%
"COc1cccc([C@]2(CNS(C)(=O)=O)CC[C@@H](NC3CCNCC3)CC2)c1 [Example 10-3, N-{[cis-1-(3-methoxyphenyl)-4-(piperidin-4-ylamino)-cyclohexyl]methyl}methanesulfonamide dihydrochloride]",Activity of (%) LDL receptor,10 μM,162%
"COc1cccc([C@]2(CNS(N)(=O)=O)CC[C@@H](NC(C)c3ccccc3)CC2)c1 (stereo partly drawn) [Example 20, N-({cis-1-(3-methoxyphenyl)-4-[(1-phenylethyl)amino]-cyclohexyl}methyl)sulfamide]",Activity of (%) LDL receptor,1 μM,128%
"COc1cccc([C@]2(CNS(N)(=O)=O)CC[C@@H](NCc3ccc(-n4ccnc4)cc3)CC2)c1 [Example 18-2, N-{[cis-4-{[4-(1H-imidazol-1-yl)benzyl]amino}-1-(3-methoxyphenyl)cyclohexyl]methyl}sulfamide]",Activity of (%) LDL receptor,10 μM,161%
"COc1cccc(C2(CNS(C)(=O)=O)CCN(c3ccccc3OC)CC2)c1 [Example 27-1, N-{[1-(2-methoxyphenyl)-4-(3-methoxyphenyl)piperidin-4-yl]methyl}methanesulfonamide]",Activity of (%) LDL receptor,10 μM,108%
"COc1cccc([C@]2(CNS(C)(=O)=O)CC[C@@H](NC3CCN(Cc4ccc(NC(C)=O)cc4)CC3)CC2)c1 [Example 15-1, N-[4-({4-[(cis-4-(3-methoxyphenyl)-4-{[(methylsulfonyl)-amino]methyl}cyclohexyl)amino]piperidin-1-yl}methyl)phenyl]acetamide]",Activity of (%) LDL receptor,10 μM,192%
"COc1cccc(C2(C(=O)NS(=O)(=O)Oc3c(C(C)C)cccc3C(C)C)CCN(c3nc4ccccc4s3)CC2)c1 [Example 1-19, 2,6-diisopropylphenyl {[1-(1,3-benzothiazol-2-yl)-4-(3-methoxyphenyl)piperidin-4-yl]carbonyl}sulfamate]",Activity of (%) LDL receptor,10 μM,132%
"COc1cccc([C@]2(CNS(C)(=O)=O)CC[C@@H](NC3CCN(Cc4ccc(S(C)(=O)=O)cc4)CC3)CC2)c1 [Example 15-2, N-[(cis-1-(3-methoxyphenyl)-4-{1-[4-(methylsulfonyl)-benzyl]piperidin-4-ylamino}cyclohexyl)methyl]methanesulfonamide]",Activity of (%) LDL receptor,10 μM,223%
"COc1cccc([C@]2(CNS(N)(=O)=O)CC[C@@H](NCc3ccc(-c4ccccc4)cc3)CC2)c1.Cl [Example 42, N-{[cis-4-[(biphenyl-4-ylmethyl)amino]-1-(3-methoxyphenyl)cyclohexyl]methyl}sulfamide hydrochloride]",Activity of (%) LDL receptor,1 μM,188%
"COc1cccc(C2(C(=O)NS(=O)(=O)Oc3c(C(C)C)cccc3C(C)C)CC3CCCC(C2)N3c2ccccc2OC)c1.Cl (stereo not shown) [Example 57, 2,6-diisopropylphenyl {[9-(2-methoxyphenyl)-3-(3-methoxyphenyl)-9-azabicyclo[3.3.1]nonan-3-yl]carbonyl}sulfamate hydrochloride]",Activity of (%) LDL receptor,3 μM,124%
"COc1cccc([C@]2(CNS(=O)(=O)N(C)C(=O)OC(C)(C)C)CC[C@@H](NCc3ccc(-c4ccccc4)cc3)CC2)c1 [Example 48, tert-butyl [({[cis-4-[(biphenyl-4-ylmethyl)amino]-1-(3-methoxyphenyl)cyclohexyl]methyl}amino)sulfonyl]methylcarbamate]",Activity of (%) LDL receptor,1 μM,145%
"COc1cccc(C2(C(=O)NP(=O)(Cc3ccccc3C)OC)CCN(c3ccccc3OC)CC2)c1 (stereo not shown) [Example 2-1, methyl N-{[1-(2-methoxyphenyl)-4-(3-methoxyphenyl)piperidin-4-yl]carbonyl}-P-(2-methylbenzyl)-phosphonamidate]",Activity of (%) LDL receptor,10 μM,140%
"COc1cccc([C@]2(CNS(N)(=O)=O)CC[C@H](NC3CCN(Cc4ccccc4)CC3)CC2)c1 [Example 55, N-{[trans-4-[(1-benzylpiperidin-4-yl)amino]-1-(3-methoxyphenyl)cyclohexyl]methyl}sulfamide dihydrochloride]",Activity of (%) LDL receptor,10 μM,140%
